From patent US8501683B2, “Cycloundecadepsipeptide compounds and use of said compounds as a medicament” (priority 2008, dated 2013)
Square brackets hold non-standard residues; d marks the D form. Peptide text beside a SMILES is read from it. MeBmt = C/C=C/C[C@@H](C)[C@@H](O)[C@H](NC)C(=O)O; NMeI = CC[C@H](C)[C@H](NC)C(=O)O; NEtVal = CCN[C@H](C(=O)O)C(C)C; NMeL = CN[C@@H](CC(C)C)C(=O)O; NMeV = CN[C@H](C(=O)O)C(C)C; dHiv = CC(C)[C@@H](O)C(=O)O; dNMeA = CN[C@H](C)C(=O)O; Abu = CC[C@H](N)C(=O)O; Sar = CNCC(=O)O

Columns and labels:
[1] = test system: Concanavalin-A-induced T-cell proliferation; experiment: Concanavalin-A-induced T-cell proliferation assay (immunosuppression); assay type: cell-based; settings: inhibition of Concanavalin-A-induced T-cell proliferation
Method: To determine whether the cycloundecadepsipepide compounds of the present invention have a non-immunosuppression activity, experiments were carried out that compared the dose-dependent inhibition of Concanavalin-A-induced T-cell proliferation (see Table 2).
The method of the assays were performed as described by Dayton et al. (1992. Mol. Pharmacol. 41. 671-676) and Mishell et al. (1980. Cell proliferation in selected methods in cellular immunology, V, XXIX, W.H. Freeman Co., San Francisco, Calif. 153-160).

[2] = molecular target: organic anion transporting polypeptide 1B1 (OATP1B1) (Homo sapiens, UniProt Q9Y6L6)
Chain of organic anion transporting polypeptide 1B1 (OATP1B1) (Q9Y6L6 whole entry): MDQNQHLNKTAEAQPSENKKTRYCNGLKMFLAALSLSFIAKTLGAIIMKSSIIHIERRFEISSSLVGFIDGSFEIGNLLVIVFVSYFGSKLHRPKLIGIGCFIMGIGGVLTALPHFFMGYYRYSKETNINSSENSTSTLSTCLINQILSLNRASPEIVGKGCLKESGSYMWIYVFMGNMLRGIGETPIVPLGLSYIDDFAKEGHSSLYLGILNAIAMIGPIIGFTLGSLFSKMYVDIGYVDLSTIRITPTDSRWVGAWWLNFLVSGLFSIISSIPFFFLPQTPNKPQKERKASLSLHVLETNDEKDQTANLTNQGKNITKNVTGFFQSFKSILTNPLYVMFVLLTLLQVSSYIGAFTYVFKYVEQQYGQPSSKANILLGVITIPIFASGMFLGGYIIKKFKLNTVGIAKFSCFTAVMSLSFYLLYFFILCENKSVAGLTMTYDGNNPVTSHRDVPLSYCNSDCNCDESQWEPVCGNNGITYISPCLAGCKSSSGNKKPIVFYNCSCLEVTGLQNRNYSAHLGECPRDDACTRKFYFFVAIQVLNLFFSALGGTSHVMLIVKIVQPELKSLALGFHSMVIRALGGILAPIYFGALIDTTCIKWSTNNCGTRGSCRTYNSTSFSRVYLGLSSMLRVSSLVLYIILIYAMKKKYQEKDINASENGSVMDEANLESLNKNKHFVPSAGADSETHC
Method: (§1) To determine whether the cycloundecadepsipeptide compounds of the present invention interact with hepatic transporters, experiments were carried out that compared the concentration-dependent inhibition towards the multidrug resistance associated protein 2 (MRP2), the organic anion transporting polypeptide 1B1 (OATP1B1), the bile salt export pump (BSEP) and the sodium-taurocholate cotransporting polypeptide (NTCP). These transporters are involved in the hepatobiliary circulation of endogenous compounds such as bile salts or bilirubin (for a review, see C. Pauli-Magnus et al, J. Hepatology, 2005, 43:342-357). Some of them also contribute to the elimination of xenobiotics.
OATP1B1 and NTCP assays were performed with Chinese hamster ovary (CHO) cells expressing these human uptake transporters. The amount of the transported probe substrate (estrone-3-sulfate and taurocholate for OATP1B1 and NTCP, respectively) was determined by liquid scintillation or fluorescent photometry after cell lysis.
(§2) The IC50 (defined as the concentration required for inhibiting the transport of the probe substrate by 50%, half maximal inhibitory concentration) of the compounds was derived from the concentration-response curve and compared to the IC50 of Debio 025 (IC50 ratio expressed as “fold Debio 025” in the tables).

[3] = molecular target: multidrug resistance associated protein 2 (MRP2) (Homo sapiens, UniProt Q92887); settings: for MRP2 fold Debio 025: IC50 ratio compared to Debio 025
Chain of multidrug resistance associated protein 2 (MRP2) (Q92887 whole entry): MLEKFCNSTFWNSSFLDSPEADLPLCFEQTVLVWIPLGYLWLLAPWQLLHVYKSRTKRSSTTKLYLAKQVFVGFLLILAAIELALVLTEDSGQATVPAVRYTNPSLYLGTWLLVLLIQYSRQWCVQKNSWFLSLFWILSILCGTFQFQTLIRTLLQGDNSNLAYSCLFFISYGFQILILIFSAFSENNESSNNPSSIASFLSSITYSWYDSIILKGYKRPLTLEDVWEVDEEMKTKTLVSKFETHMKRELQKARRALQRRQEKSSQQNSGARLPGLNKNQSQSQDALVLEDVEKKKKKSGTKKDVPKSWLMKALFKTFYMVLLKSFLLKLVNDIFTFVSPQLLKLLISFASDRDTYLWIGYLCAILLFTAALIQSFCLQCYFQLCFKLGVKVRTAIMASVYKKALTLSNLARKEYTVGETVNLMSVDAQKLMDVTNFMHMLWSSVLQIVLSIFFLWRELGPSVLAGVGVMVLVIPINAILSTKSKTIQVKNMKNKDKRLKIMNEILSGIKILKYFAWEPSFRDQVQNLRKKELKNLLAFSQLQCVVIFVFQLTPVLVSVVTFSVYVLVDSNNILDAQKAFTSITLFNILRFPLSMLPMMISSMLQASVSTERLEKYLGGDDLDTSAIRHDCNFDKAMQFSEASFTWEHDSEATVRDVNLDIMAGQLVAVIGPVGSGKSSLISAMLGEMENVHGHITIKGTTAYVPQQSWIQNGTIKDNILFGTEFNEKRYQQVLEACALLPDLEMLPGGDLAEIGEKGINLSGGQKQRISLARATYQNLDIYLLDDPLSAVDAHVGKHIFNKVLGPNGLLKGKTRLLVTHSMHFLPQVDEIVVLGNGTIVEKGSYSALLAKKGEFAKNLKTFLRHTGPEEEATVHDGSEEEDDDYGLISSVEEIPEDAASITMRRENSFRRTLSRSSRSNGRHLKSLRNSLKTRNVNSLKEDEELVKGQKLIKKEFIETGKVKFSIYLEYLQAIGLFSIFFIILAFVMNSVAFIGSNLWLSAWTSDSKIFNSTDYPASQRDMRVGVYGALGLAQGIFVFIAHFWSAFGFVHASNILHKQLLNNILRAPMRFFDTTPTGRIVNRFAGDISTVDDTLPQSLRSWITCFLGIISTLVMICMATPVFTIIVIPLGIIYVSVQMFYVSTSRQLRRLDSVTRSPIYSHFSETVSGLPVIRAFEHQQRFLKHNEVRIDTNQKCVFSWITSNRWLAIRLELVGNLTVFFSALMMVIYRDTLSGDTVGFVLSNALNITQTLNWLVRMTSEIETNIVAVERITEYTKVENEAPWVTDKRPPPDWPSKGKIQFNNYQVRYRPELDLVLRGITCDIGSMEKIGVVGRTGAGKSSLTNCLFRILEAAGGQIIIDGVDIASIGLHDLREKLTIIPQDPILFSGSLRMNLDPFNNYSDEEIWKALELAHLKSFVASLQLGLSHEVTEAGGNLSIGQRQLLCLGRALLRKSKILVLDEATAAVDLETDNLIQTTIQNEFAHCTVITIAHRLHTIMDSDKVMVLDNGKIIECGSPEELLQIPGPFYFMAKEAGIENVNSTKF
Method: as §1
(§3) MRP2 and BSEP were expressed by SOLVO Biotechnology in Spodoptera frugiperda (Sf9) ovarian cells, by infecting the insect cells with a recombinant baculovirus. The inhibition of the transport of the radioactive probe substrates (estradiol-17-beta-glucuronide and taurocholate for MRP2 and BSEP, respectively) into inside-out membrane vesicles, containing the transporter, was measured by scintillation counting.
as §2

[4] = molecular target: bile salt export pump (BSEP) (Homo sapiens, UniProt O95342); settings: for BSEP fold Debio 025: IC50 ratio compared to Debio 025
Chain of bile salt export pump (BSEP) (O95342 whole entry): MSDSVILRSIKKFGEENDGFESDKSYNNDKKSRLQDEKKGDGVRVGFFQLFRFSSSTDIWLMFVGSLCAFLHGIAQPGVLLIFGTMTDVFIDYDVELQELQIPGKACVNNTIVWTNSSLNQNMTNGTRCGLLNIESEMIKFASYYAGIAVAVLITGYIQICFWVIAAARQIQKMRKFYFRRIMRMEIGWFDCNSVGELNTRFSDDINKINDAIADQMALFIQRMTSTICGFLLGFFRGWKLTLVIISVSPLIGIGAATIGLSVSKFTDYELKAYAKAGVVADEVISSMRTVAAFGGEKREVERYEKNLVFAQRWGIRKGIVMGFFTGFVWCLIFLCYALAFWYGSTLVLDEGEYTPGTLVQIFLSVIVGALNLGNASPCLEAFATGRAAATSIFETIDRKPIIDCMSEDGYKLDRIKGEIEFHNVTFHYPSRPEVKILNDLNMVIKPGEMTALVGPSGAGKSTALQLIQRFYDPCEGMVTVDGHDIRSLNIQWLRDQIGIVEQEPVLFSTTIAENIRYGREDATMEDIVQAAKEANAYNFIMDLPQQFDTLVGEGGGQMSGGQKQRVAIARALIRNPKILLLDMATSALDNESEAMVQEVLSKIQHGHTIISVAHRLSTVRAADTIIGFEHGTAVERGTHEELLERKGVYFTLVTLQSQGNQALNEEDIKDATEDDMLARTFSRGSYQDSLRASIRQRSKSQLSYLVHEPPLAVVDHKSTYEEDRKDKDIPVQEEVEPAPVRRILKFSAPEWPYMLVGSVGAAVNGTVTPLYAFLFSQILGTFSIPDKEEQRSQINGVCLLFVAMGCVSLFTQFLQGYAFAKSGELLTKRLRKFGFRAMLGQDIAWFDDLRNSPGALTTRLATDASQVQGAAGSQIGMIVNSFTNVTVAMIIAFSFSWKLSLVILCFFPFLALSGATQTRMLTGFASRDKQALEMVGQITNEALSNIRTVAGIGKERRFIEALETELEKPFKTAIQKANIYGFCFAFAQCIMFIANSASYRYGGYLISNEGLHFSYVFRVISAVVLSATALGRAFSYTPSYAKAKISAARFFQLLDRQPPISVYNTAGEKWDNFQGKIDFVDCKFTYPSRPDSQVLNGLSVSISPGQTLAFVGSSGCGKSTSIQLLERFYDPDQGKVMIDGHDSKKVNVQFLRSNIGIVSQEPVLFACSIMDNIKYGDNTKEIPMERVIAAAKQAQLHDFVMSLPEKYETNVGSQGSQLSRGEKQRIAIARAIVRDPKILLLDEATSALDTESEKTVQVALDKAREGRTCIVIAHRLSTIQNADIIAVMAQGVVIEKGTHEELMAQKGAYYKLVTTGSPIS
Method: as §1, §3, §2

[5] = test system: hepatitis C virus genotype 1b Con1 replicon; experiment: HCV replicon assay, replicon RNA by RT-qPCR in Huh 9-13 cells; assay type: cell-based; settings: 50% inhibition of HCV replicon replication, 3 dose-response curves
Method: For the evaluation of antiviral effects, assay medium was aspirated and the plates with dry monolayer were stored at −80° C. awaiting extraction. Following thawing of the plates at room temperature, the cell monolayer was lysed with 100 μl of cell-to-cDNA lysis buffer (Invitrogen). Lysis of the cells was allowed to proceed for 10 min at room temperature after which all liquid was transferred to a PCR plate (Axygen). The PCR plate was incubated for 15 min at 75° C. […] The lysate was diluted 1:2 with RNase/DNase-free water, after which 5 μl was transferred to the real-time PCR plate (Applied Biosystems).
Replicon RNA content was quantified using a real-time quantitative one-step RT-PCR method (RT-qPCR): Low Rox One-Step RT-qPCR master mix, Abgene). […] The fluorogenic probe was 5′-[sequence]-3′. The analysis of the samples were performed using a SDS7500F (Applied Biosystems, standard thermocycling profile: 30 min at 48° C., 10 min at 95° C., 40 cycles of 15 sec at 95° C. and 1 min at 60° C.) after which replicon RNA quantities were converted to percentage of untreated controls.

[6] = molecular target: T1, sodium-taurocholate cotransporting polypeptide (NTCP) (Homo sapiens, UniProt Q14973); experiment: NTCP inhibition, taurocholate uptake in CHO cells; assay type: in vitro ADME; settings: for NTCP fold Debio 025: IC50 ratio compared to Debio 025
T1 sequence (Q14973 1-349): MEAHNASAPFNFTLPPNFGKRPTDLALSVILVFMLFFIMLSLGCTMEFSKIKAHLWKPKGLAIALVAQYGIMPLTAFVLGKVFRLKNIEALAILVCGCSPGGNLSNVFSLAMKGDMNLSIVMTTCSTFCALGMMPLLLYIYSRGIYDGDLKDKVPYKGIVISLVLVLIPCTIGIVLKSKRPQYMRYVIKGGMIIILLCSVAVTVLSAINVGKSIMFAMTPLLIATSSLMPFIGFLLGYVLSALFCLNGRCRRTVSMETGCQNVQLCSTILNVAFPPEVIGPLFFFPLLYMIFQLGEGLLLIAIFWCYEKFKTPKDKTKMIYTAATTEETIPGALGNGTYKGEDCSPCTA

[7] = Cytostatic/cytotoxic effect, MTT (MTS) assay in Huh 9-13 cells; assay type: cell-based; settings: metabolic activity reduced to 50% of untreated cells
Excerpt: Assays used Huh 9-13 containing the hepatitis C virus genotype 1b Con1 replicon (Lohmann et al. 2001. J. Virol. 75:1437-1449; and Lohmann et al. 1999. Science. 285:110-113). Cells were sub-cultured in cell growth medium DMEM supplemented with 10% FCS, 1% non-essential amino acids, 1% penicillin/streptomycin and 2% Geneticin (Invitrogen) at a ratio of 1:4-1:5 and grown for 3-4 days in 75 cm^2 tissue culture flasks (Techno Plastic Products), were harvested and seeded in assay medium (DMEM, 10% FCS, 1% non-essential amino acids, 1% penicillin/streptomycin) at a density of 5 000 cells/well (100 μl/well) in 96-well tissue culture microtiter plates (Falcon, Beckton Dickinson) for evaluation of cytostatic/cytotoxic and antiviral effect. The microtiter plates were incubated overnight (37° C., 5% CO2, 95-99% relative humidity), yielding a non-confluent cell monolayer.
Cell density and cytostatic effects were estimated in parallel cultures in regular 96-well plates (Beckton-Dickinson) using the MTT assay (CellTiter 96 AQueous Non-Radioactive Cell Proliferation Assay, Promega). In this assay, 3-(4,5-dimethyl-thiazol-2-yl)-5-(3-carboxymethoxy-phenyl)-2-(4-sulfophenyl)-2H-tetrazolium (MTS) is bioreduced to a formazan that is quantified at 498 nm in a plate reader. Formazan production is directly correlated with number of life cells. Absorbance was measured at a wavelength of 498 nm (Safire^2, Tecan) and optical densities (OD values) were converted to percentage of untreated controls.
The compounds were dissolved in DMSO at a concentration of 4 mmole/L. Stock solutions were immediately used to set up the experiments. The compounds were tested at 24 different concentrations ranging from 0.0001 μmole/L to 100 μmole/L. The highest concentration of DMSO in the assay was determined to be 2.5% (at 100 μM final concentration of the compound). During the assay setup, the DMSO percentage decreased concomitantly with decrease in concentration of the compound.
The EC50 (value derived from the dose-response curve) represents the concentration at which 50% inhibition of viral replication is observed. The CC50 (value derived from the dose-response curve) represents the concentration at which the metabolic activity of the cells is reduced to 50% of the metabolic activity of untreated cells.
Results from these experiments permitted calculation of EC50±SD (standard deviation or Std. Dev.), which is the effective concentration required to inhibit HCV replicon replication by 50%, and of CC50±SD (whenever possible), which is the concentration required that inhibits the proliferation of exponentially growing cells by 50%. EC50 and CC50±SD values were calculated respectively as the median of all the EC50, or CC50 values derived from the 3 individual dose-response curves. The selectivity index (SI), indicative of the therapeutic window of the compound was calculated as the ratio between CC50 and EC50.

[8] = human, Huh 9-13 cells containing the HCV genotype 1b Con1 replicon

## C/C=C/C[C@@H](C)[C@@H](O)[C@H]1C(=O)N[C@@H](CC)C(=O)N(C)[C@H](C)C(=O)N(C)[C@@H](C(C)C)C(=O)N[C@@H](CC(C)C)C(=O)N(C)[C@@H](CC(C)C)C(=O)NCC(=O)O[C@H](C(C)C)C(=O)N(C)[C@@H](CC(C)C)C(=O)N[C@@H](CC(C)C)C(=O)N(C)[C@@H](C(C)C)C(=O)N1C [(Ia), cyclo-(MeBmt-Abu-D-MeAla-MeVal-Leu-MeLeu-Gly-D-Hiv-MeLeu-Leu-MeVal)] (cyclo([Abu][dNMeA][NMeV]L[NMeL]G[dHiv][NMeL]L[NMeV][MeBmt]))
[1]
  IC50: 2000 nM
[2]
  IC50: 18000 nM
  OATP1B fold Debio 025: 0.02
[3]
  MRP2 IC50: n.i.
[4]
  IC50: 400 nM
  BSEP fold Debio 025: 0.60
[5]
  EC50: 34 nM
[6]; probe taurocholate, CHO cells
  NTCP IC50: n.i.
[7]; [8]
  CC50: 60100 nM

## C/C=C/C[C@@H](C)[C@@H](O)[C@H]1C(=O)N[C@@H](CC)C(=O)N(C)[C@H](C)C(=O)N(CC)[C@@H](C(C)C)C(=O)N[C@@H](CC(C)C)C(=O)N(C)[C@@H](CC(C)C)C(=O)N[C@@H](C)C(=O)O[C@H](C(C)C)C(=O)N(C)[C@@H](CC(C)C)C(=O)N[C@@H](CC(C)C)C(=O)N(C)[C@@H](C(C)C)C(=O)N1C [(Ib), cyclo-(MeBmt-Abu-D-MeAla-EtVal-Leu-MeLeu-Ala-D-Hiv-MeLeu-Leu-MeVal)] (cyclo(A[dHiv][NMeL]L[NMeV][MeBmt][Abu][dNMeA][NEtVal]L[NMeL]))
[1]
  IC50: 9440 nM
[2]
  IC50: 6200 nM
  OATP1B fold Debio 025: 0.07
[3]
  MRP2 IC50: n.i.
[4]
  IC50: 150 nM
  BSEP fold Debio 025: 1.6
[5]
  EC50: 37 nM
[6]
  NTCP fold Debio 025: 0.05
[6]; probe taurocholate, CHO cells
  IC50: 65000 nM
[7]; [8]
  CC50: 52300 nM

## C/C=C/C[C@@H](C)[C@@H](O)[C@H]1C(=O)N[C@@H](C(C)C)C(=O)N(C)[C@H](C)C(=O)N(C)[C@@H](C(C)C)C(=O)N[C@@H]([C@@H](C)CC)C(=O)N(C)[C@@H](CC(C)C)C(=O)NCC(=O)O[C@H](C(C)C)C(=O)N(C)[C@@H](CC(C)C)C(=O)N[C@@H](CC(C)C)C(=O)N(C)[C@@H](C(C)C)C(=O)N1C [(Ic), cyclo-(MeBmt-Val-D-MeAla-MeVal-Ile-MeLeu-Gly-D-Hiv-MeLeu-Leu-MeVal)] (cyclo(G[dHiv][NMeL]L[NMeV][MeBmt]V[dNMeA][NMeV]I[NMeL]))
[1]
  IC50: 984 nM
[2]
  IC50: 2300 nM
  OATP1B fold Debio 025: 0.18
[3]
  IC50: 2200 nM
  MRP2 fold Debio 025: 6.6
[4]
  IC50: 160 nM
  BSEP fold Debio 025: 1.5
[5]
  EC50: 22 nM
[6]
  NTCP fold Debio 025: 0.11
[6]; probe taurocholate, CHO cells
  IC50: 30000 nM
[7]; [8]
  CC50: 86900 nM

## C/C=C/C[C@@H](C)[C@@H](O)[C@H]1C(=O)N[C@@H](CC)C(=O)N(C)[C@H](C)C(=O)N(C)[C@@H](C(C)C)C(=O)N[C@@H]([C@@H](C)CC)C(=O)N(C)[C@@H](CC(C)C)C(=O)NCC(=O)O[C@H](C(C)C)C(=O)N(C)[C@@H](CC(C)C)C(=O)N[C@@H](CC(C)C)C(=O)N(C)[C@@H](C(C)C)C(=O)N1C [(Ig), cyclo-(MeBmt-Abu-D-MeAla-MeVal-Ile-MeLeu-Gly-D-Hiv-MeLeu-Leu-MeVal)] (cyclo([Abu][dNMeA][NMeV]I[NMeL]G[dHiv][NMeL]L[NMeV][MeBmt]))
[7]
  CC50: 67000 nM

## C/C=C/C[C@@H](C)[C@@H](O)[C@H]1C(=O)N[C@@H](CC)C(=O)N(C)[C@H](C)C(=O)N(C)[C@@H]([C@@H](C)CC)C(=O)N[C@@H](CC(C)C)C(=O)N(C)[C@@H](CC(C)C)C(=O)NCC(=O)O[C@H](C(C)C)C(=O)N(C)[C@@H](CC(C)C)C(=O)N[C@@H](CC(C)C)C(=O)N(C)[C@@H](C(C)C)C(=O)N1C [(Ii), cyclo-(MeBmt-Abu-D-MeAla-MeIle-Leu-MeLeu-Gly-D-Hiv-MeLeu-Leu-MeVal)] (cyclo([Abu][dNMeA][NMeI]L[NMeL]G[dHiv][NMeL]L[NMeV][MeBmt]))
[7]
  CC50: 25400 nM

## C/C=C/C[C@@H](C)[C@@H](O)[C@H]1C(=O)N[C@@H](C(C)C)C(=O)N(C)[C@H](C)C(=O)N(C)[C@@H](C(C)C)C(=O)N[C@@H](C(C)C)C(=O)N(C)CC(=O)NCC(=O)O[C@H](C(C)C)C(=O)N(C)[C@@H](CC(C)C)C(=O)N[C@@H](CC(C)C)C(=O)N(C)[C@@H](C(C)C)C(=O)N1C [(Ik), cyclo-(MeBmt-Val-D-MeAla-MeVal-Val-Sar-Gly-D-Hiv-MeLeu-Leu-MeVal)] (cyclo(G[dHiv][NMeL]L[NMeV][MeBmt]V[dNMeA][NMeV]V[Sar]))
[7]
  CC50: 9800 nM

## C/C=C/C[C@@H](C)[C@@H](O)[C@H]1C(=O)N[C@@H](CC)C(=O)N(C)[C@H](C)C(=O)N(CC)[C@@H](C(C)C)C(=O)N[C@@H](C(C)C)C(=O)N(C)[C@@H](CC(C)C)C(=O)N[C@@H](C)C(=O)N[C@H](C)C(=O)N(C)[C@@H](CC(C)C)C(=O)N(C)[C@@H](CC(C)C)C(=O)N(C)[C@@H](C(C)C)C(=O)N1C [Debio 025, [D-MeAla]^3-[EtVal]^4-CsA, reference compound]
[2]
  IC50: 420 nM
  OATP1B fold Debio 025: 1
[3]
  IC50: 15000 nM
  MRP2 fold Debio 025: 1
[4]
  IC50: 240 nM
  BSEP fold Debio 025: 1
[5]
  EC50: 34 nM
[6]
  NTCP fold Debio 025: 1
[6]; probe taurocholate, CHO cells
  IC50: 3200 nM
[7]; [8]
  CC50: 2500 nM

## Cyclosporin A [Cyclosporin A (CsA), reference compound]
[1]
  IC50: 6 nM
